Results as given in the supplement of paper PMC4862054.

What was measured:
Test in all cases: normalised response (% of control), CellTiter-Glo; higher = more viable cells (100 = DMSO, 0 = benzethonium chloride kill control)
Conditions in all cases: incubation time: 72 h
CAL-148 = test system: CAL-148
Summary of the method: (§1)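 Breast cancer cell lines were exposed for 72 h in 384-well plates to compound at 5 concentrations, 10-fold apart, covering a 10,000-fold range fixed for each compound. Plates were read for CellTox Green fluorescence and CellTiter-Glo luminescence and normalised to 0.1 % DMSO (100) and a positive kill control (0). Each value is the normalised signal at one concentration of the series.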

MDA-MB-436 = test system: MDA-MB-436
Summary of the method: as §1

DU-4475 = test system: DU-4475
Summary of the method: as §1

CAL-85-1 = test system: CAL-85-1
Summary of the method: as §1

BT-549 = test system: BT-549
Summary of the method: as §1

MFM-223 = test system: MFM-223
Summary of the method: as §1

HCC1599 = test system: HCC1599
Summary of the method: as §1

HCC1937 = test system: HCC1937
Summary of the method: as §1

MDA-MB-468 = test system: MDA-MB-468
Summary of the method: as §1

MCF-10A = test system: MCF-10A
Summary of the method: as §1

BT-474 = test system: BT-474
Summary of the method: as §1

SK-BR-3 = test system: SK-BR-3
Summary of the method: as §1

MDA-MB-453 = test system: MDA-MB-453
Summary of the method: as §1

CAL-51 = test system: CAL-51
Summary of the method: as §1

Hs578T = test system: Hs578T
Summary of the method: as §1

CAL-120 = test system: CAL-120
Summary of the method: as §1

HDQ-P1 = test system: HDQ-P1
Summary of the method: as §1

HCC1143 = test system: HCC1143
Summary of the method: as §1

MDA-MB-231 = test system: MDA-MB-231
Summary of the method: as §1

| Structure (SMILES) | normalised response (CAL-148) [%] | normalised response (MDA-MB-436) [%] | normalised response (DU-4475) [%] | normalised response (CAL-85-1) [%] | normalised response (BT-549) [%] | normalised response (MFM-223) [%] | normalised response (HCC1599) [%] | normalised response (HCC1937) [%] | normalised response (MDA-MB-468) [%] | normalised response (MCF-10A) [%] | normalised response (BT-474) [%] | normalised response (SK-BR-3) [%] | normalised response (MDA-MB-453) [%] | normalised response (CAL-51) [%] | normalised response (Hs578T) [%] | normalised response (CAL-120) [%] | normalised response (HDQ-P1) [%] | normalised response (HCC1143) [%] | normalised response (MDA-MB-231) [%] |
| --- | --- | --- | --- | --- | --- | --- | --- | --- | --- | --- | --- | --- | --- | --- | --- | --- | --- | --- | --- |
| CN(C)/N=N/c1[nH]cnc1C(N)=O [Dacarbazine] (1000 nM) | 97.8 | 101 | 101 | 100 | 101 | 105 | 111 | 101 | 117 | 104 | 101 | 102 | 104 | 91.2 | 105 | 96 | 95.4 | 103 | 105 |
| N[C@@H](CSC(c1ccccc1)(c1ccccc1)c1ccccc1)C(=O)O [S-trityl-L-cysteine] (4000 nM) | 97.6 | 100 | 91.1 | 99.8 | 98.6 | 101 | 109 | 97.3 | 105 | 96.3 | 102 | 94.3 | 103 | 87.3 | 99.2 | 102 | 99.5 | 94 | 105 |
| Oc1nc(-c2ccc(C(F)(F)F)cc2)nc2c1CSCC2 [XAV-939] (1000 nM) | 89.8 | 96.7 | 92.8 | 105 | 91.8 | 96.1 | 104 | 91.1 | 82 | 88.8 | 79.8 | 84.4 | 91.4 | 89.3 | 92.3 | 92 | 101 | 88.8 | 76.8 |
| CCC1(c2ccc(N)cc2)CCC(=O)NC1=O (stereo not given) [Aminoglutethimide] (1000 nM) | 96.2 | 102 | 101 | 103 | 94.7 | 101 | 115 | 96.8 | 105 | 101 | 100 | 95.6 | 100 | 80.4 | 101 | 105 | 97 | 97.6 | 105 |
| CNCc1ccc(-c2[nH]c3cc(F)cc4c3c2CCNC4=O)cc1 [Rucaparib] (1000 nM) | 95.3 | 88.8 | 97.6 | 110 | 100 | 96.3 | 94.4 | 105 | 93.5 | 101 | 92.3 | 86.7 | 100 | 106 | 107 | 105 | 98.8 | 94.1 | 99 |
| CO[C@H]1/C=C\C=C(/C)C(=O)NC2=CC(=O)C(NCCN(C)C)=C(C[C@@H](C)C[C@H](OC)[C@H](O)[C@@H](C)/C=C(\C)[C@@H]1OC(N)=O)C2=O [Alvespimycin] (100 nM) | 23.9 | 46.6 | 0.07 | 23 | 33.7 | 39.9 | 76.9 | 36.5 | 39.6 | 13.5 | 36.1 | 44.1 | 25.8 | 26.7 | 41.8 | 52 | 31.3 | 35.4 | 26.5 |
| CN(N=O)C(=O)N[C@@H](C=O)[C@@H](O)[C@H](O)[C@H](O)CO [Streptozocin] (1000 nM) | 100 | 98.3 | 100 | 104 | 98.2 | 103 | 107 | 108 | 104 | 109 | 107 | 100 | 109 | 107 | 109 | 105 | 107 | 112 | 106 |
| O=P1(NCCCl)OCCCN1CCCl (stereo not given) [Ifosfamide] (1000 nM) | 89 | 91.3 | 90.6 | 96.8 | 96.1 | 92.5 | 96.1 | 97.7 | 90.9 | 95.6 | 93.3 | 92 | 92.5 | 105 | 97.8 | 91.4 | 104 | 94.7 | 88.3 |
| Clc1ccc(Nc2nnc(Cc3ccncc3)c3ccccc23)cc1 [Vatalanib] (1000 nM) | 98.7 | 106 | 106 | 97.7 | 100 | 104 | 124 | 103 | 103 | 103 | 95.2 | 104 | 95.4 | 94.4 | 100 | 99.2 | 109 | 97 | 105 |
| Cc1ccc(C(=O)Nc2ccc(CN3CCN(C)CC3)c(C(F)(F)F)c2)cc1C#Cc1cnc2cccnn12 [Ponatinib] (100 nM) | 99.6 | 97 | 99.3 | 105 | 107 | 54.5 | 117 | 97.2 | 120 | 103 | 93 | 107 | 110 | 112 | 96.5 | 86.3 | 92.1 | 97.6 | 91.4 |
| C=C(c1ccc(C(=O)O)cc1)c1cc2c(cc1C)C(C)(C)CCC2(C)C [Bexarotene] (1000 nM) | 86.4 | 99.4 | 103 | 102 | 102 | 102 | 57.6 | 102 | 103 | 81.8 | 87.8 | 80 | 103 | 111 | 94.9 | 104 | 104 | 102 | 106 |
| Cn1c(Nc2ccc(C(F)(F)F)cc2)nc2cc(Oc3ccnc(-c4ncc(C(F)(F)F)[nH]4)c3)ccc21 [RAF265] (100 nM) | 97.1 | 89.8 | 95.3 | 98.5 | 91.1 | 96.5 | 120 | 91.6 | 85.5 | 91.4 | 99.3 | 92 | 110 | 77.8 | 82.5 | 82.9 | 75 | 95.9 | 104 |
| C#Cc1cccc(Nc2ncnc3cc(OCCOC)c(OCCOC)cc23)c1 [Erlotinib] (1000 nM) | 82.1 | 99.9 | 104 | 60.2 | 100 | 100 | 100 | 93.4 | 82.9 | 37.1 | 96.3 | 97.5 | 107 | 80.3 | 99.8 | 93.5 | 69.3 | 94.7 | 102 |
| COc1cc2nccc(Oc3ccc(NC(=O)C4(C(=O)Nc5ccc(F)cc5)CC4)cc3)c2cc1OC [Cabozantinib] (100 nM) | 98.1 | 99.2 | 99.6 | 93.6 | 96.5 | 98.7 | 117 | 95.6 | 96.7 | 88.6 | 87.7 | 104 | 106 | 109 | 103 | 101 | 97.6 | 92.2 | 90.5 |
| COc1cc([C@@H]2c3cc4c(cc3[C@@H](O[C@@H]3O[C@@H]5CO[C@@H](C)O[C@H]5[C@H](O)[C@H]3O)[C@H]3COC(=O)[C@H]23)OCO4)cc(OC)c1O [Etoposide] (1000 nM) | 69 | 67 | 56.8 | 101 | 76.7 | 114 | 63.5 | 94 | 87.3 | 99.8 | 93.2 | 67.7 | 153 | 65.7 | 91 | 93.3 | 97.6 | 86.2 | 94.7 |
| Cn1c(CCCC(=O)O)nc2cc(N(CCCl)CCCl)ccc21 [Bendamustine] (1000 nM) | 110 | 101 | 101 | 101 | 92.4 | 111 | 105 | 95.7 | 117 | 96.9 | 101 | 107 | 117 | 112 | 106 | 104 | 102 | 106 | 106 |
| CN[C@@H]1C[C@H]2O[C@@](C)([C@@H]1OC)n1c3ccccc3c3c4c(c5c6ccccc6n2c5c31)C(=O)N[C@H]4O [UCN-01] (1000 nM) | 75.2 | 27.5 | 7.33 | 23.2 | 17.8 | 30.2 | 8.97 | 32 | 5.24 | 1.2 | 12.4 | 22.3 | 34 | 11.8 | 11.7 | 20.5 | 18.8 | 17.3 | 7.91 |
| Cc1ccc(-n2nc(C(C)(C)C)cc2NC(=O)Nc2ccc(OCCN3CCOCC3)c3ccccc23)cc1 [Doramapimod] (1000 nM) | 80.3 | 105 | 96 | 121 | 99.6 | 87.6 | 108 | 95.1 | 87.5 | 89.1 | 86.1 | 80.8 | 85.8 | 111 | 97 | 101 | 89.1 | 95.2 | 83.7 |
| CC1(C)NC(=O)N(c2ccc([N+](=O)[O-])c(C(F)(F)F)c2)C1=O [Nilutamide] (1000 nM) | 109 | 106 | 105 | 98.5 | 91.2 | 107 | 110 | 103 | 119 | 111 | 99.8 | 110 | 102 | 82.4 | 113 | 102 | 97.7 | 101 | 102 |
| O=C1CCC(N2C(=O)c3ccccc3C2=O)C(=O)N1 (stereo not given) [Thalidomide] (1000 nM) | 96 | 99.1 | 100 | 94.5 | 96.3 | 93.8 | 114 | 98 | 106 | 102 | 102 | 99.4 | 102 | 120 | 107 | 101 | 101 | 95.9 | 95.8 |
